Results as given in patent EP4624471A1, “PKMYT1 INHIBITOR, PREPARATION METHOD THEREFOR, AND PHARMACEUTICAL COMPOSITION AND USE THEREOF” (Shanghai Qilu Pharmaceutical Research and Development …, priority 2022, dated 2024).

How the values were obtained:
[1] = biological target: T1, PKMYT1 enzyme (Homo sapiens, UniProt Q99640); test: PKMYT1 enzyme inhibition activity, ADP-GLO method; format: biochemical; conditions: PKMYT1 enzyme 10 nM, ATP 5 µM, 37°C 90 minutes; read-out: ADP-GLO IC50
T1 construct: purchased Thermo Scientific A33387
T1 sequence (Q99640 1-499): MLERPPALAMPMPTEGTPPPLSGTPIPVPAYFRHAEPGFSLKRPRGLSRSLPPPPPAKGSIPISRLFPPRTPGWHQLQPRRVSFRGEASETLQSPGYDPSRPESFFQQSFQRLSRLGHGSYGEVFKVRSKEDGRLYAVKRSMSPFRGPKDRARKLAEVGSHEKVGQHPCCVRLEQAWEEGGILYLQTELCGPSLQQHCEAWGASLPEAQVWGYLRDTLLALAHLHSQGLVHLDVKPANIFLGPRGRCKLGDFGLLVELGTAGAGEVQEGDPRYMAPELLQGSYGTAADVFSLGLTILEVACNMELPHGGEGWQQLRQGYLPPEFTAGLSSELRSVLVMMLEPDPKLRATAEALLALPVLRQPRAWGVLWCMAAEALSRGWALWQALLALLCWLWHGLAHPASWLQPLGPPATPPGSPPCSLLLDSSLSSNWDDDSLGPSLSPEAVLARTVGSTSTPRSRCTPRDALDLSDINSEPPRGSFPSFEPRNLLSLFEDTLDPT

[2] = tested on: HCC1569 cells; test: Cytostatic activity, CTG assay (HCC1569); format: cell-based; conditions: 5 days
Protocol: Biological test example 2. Cytostatic activity of compounds of the present disclosure
CTG assay (HCC1569) was used to verify the biological activity of some of the example compounds of the present disclosure.
HCC1569 cells were purchased from ATCC (Cat. No.: CRL-2330) and cultured in a 37°C, 5% CO2 cell culture incubator. HCC1569 complete medium: RPMI-1640 liquid medium (Cat. No.: Gibico 11875-093), 20% FBS (Cat. No.: Gibico 10099-141), 1% Pen Strep (Cat. No.: Gibico 15070-063).
HCC1569 cells in a 75 cm^2 culture flask were digested with 2 mL of trypsin for 2-3 min, and then neutralized with 2 mL of 1640 complete medium. The mixture was centrifuged at 1200 rpm for 5 minutes. Cells were resuspended using 4 mL of 1640 complete medium. 500 µL of cell suspension was taken for cell counting using Vi-CELL-XR cell counter.
Using a Multidrop instrument, the HCC1569 cells were seeded in a 384-well plate at a density of 1000 cells per well (50 µL 1640 Growth Media) and administrated 24 hours later.
Using an ultra-micro pipette, the test compound (concentration: 3.33 mM, dissolved in DMSO) was diluted with 10 µM as the highest starting concentration, and then sequentially diluted in 10 gradients at a ratio of 1:3 (10000 nM, 3333 nM, 1111 nM, 370 nM, 123 nM, 41 nM, 13.7 nM, 4.6 nM, 1.5 nM, 0.5 nM) for administration treatment, with two duplicate wells for each concentration; 14 wells for positive and negative controls were set, with the positive control being the duplicate wells of 10 µM positive compound and the negative control being the duplicate wells of DMSO.
After the administration was completed, the cells were placed in a 37°C incubator for further culture for 5 days. After 5 days, 25 µL of CTG buffer was added to each well for CTG assay detection, and analyzed using a microplate reader. CTG readings were analyzed.
a = CTG value (highest concentration), b = CTG value (blank well), x = CTG value(test well).
IC50 was calculated using GraphPad PRISM 8.
Log10 (A compound concentration) was used for statistical calculation. (2) The data were input into GraphPad PRISM 8, and Analysis was selected. (3) Nonlinear regression (curve fit) was selected. (4) Log (inhibitor) vs. response-Variable slope was selected. (5) The calculation formula was selected, and the calculation was carried out according to the following formula: Y = Bottom + (Top-Bottom)/(1+10^((LogIC50-X)*HillSlope)), X: logarithm of dose or concentration, Y: response value, Top and Bottom: peak and bottom values. (6) The data were fitted to obtain IC50 values. (7) The fitting conditions were adjusted according to the specific data. Appropriate Constraint conditions were adjusted for Bottom, Top, and HillSlope. The curve that best fits the actual situation has been reached.

Compound | IC50 [1] [nM] | IC50 ([2]; Homo sapiens, HCC1569, 120 h) [nM] | IC50 [2] [nM] | IC50 ([2]; Homo sapiens, 120 h) [nM]
Cc1cc(F)c(O)c(C)c1-n1c(N)c(C(N)=O)c2cc(N(C)C)c(C)nc21 (atropisomer, axis not shown) [Example 169.1] | 6.31 | 78 |  | 
Cc1c(O)cc(F)c(C)c1-n1c(N)c(C(N)=O)c2cc(-c3ccnn3C)cnc21 (racemic) [Example 118] | 4.1 | 65 |  | 
Cc1nc2c(cc1Br)c(C(N)=O)c(N)n2-c1c(C)c(O)cc(F)c1C (racemic) [Example 104] | 3.21 | 15 |  | 
Cc1nc(C2CC2)c2c(C(N)=O)c(N)n(-c3c(C)ccc(O)c3C)c2n1 (atropisomer, axis not shown) [Example 62.2] | 14.4 | 60 |  | 
Cc1c(O)cc(F)c(C)c1-n1c(N)c(C(N)=O)c2cc(Br)cnc21 [Example 99] | 9.68 | 40 |  | 
Cc1cc2c(C(N)=O)c(N)n(-c3c(C)c(O)cc(F)c3C)c2nc1C [Example 20, 2-amino-1-(3-fluoro-5-hydroxy-2,6-dimethylphenyl)-5,6-dimethyl-1H-pyrrolo[2,3-b]pyridine-3-carboxamide] | 15.3 | 40 |  | 
Cc1c(O)cc(F)c(C)c1-n1c(N)c(C(N)=O)c2cc(-c3ccccc3)cnc21 (atropisomer, axis not shown) [Example 119.1] | 4.66 | 18 |  | 
Cc1nc2c(cc1-c1nccs1)c(C(N)=O)c(N)n2-c1c(C)c(O)cc(F)c1C [Example 127] | 9.17 | 14 |  | 
C=Cc1cc2c(C(N)=O)c(N)n(-c3c(C)cc(F)c(O)c3C)c2nc1C (atropisomer, axis not shown) [Example 142] | 20.7 | 88 |  | 
Cc1c(O)cc(F)c(C)c1-n1c(N)c(C(N)=O)c2cc(C(C)C)cnc21 (racemic) [Example 113] | 8.33 | 18 |  | 
C=C(C)c1cnc2c(c1)c(C(N)=O)c(N)n2-c1c(C)c(O)cc(F)c1C (atropisomer, axis not shown) [Example 133] | 6.62 | 18 |  | 
Cc1cc(F)c(O)c(C)c1-n1c(N)c(C(N)=O)c2c3c(c(C)nc21)CCC3 (atropisomer, axis not shown) [Example 176.2] | 10.2 | 68 |  | 
Cc1nc2c(cc1-c1cccnc1)c(C(N)=O)c(N)n2-c1c(C)c(O)cc(F)c1C [Example 131] | 11.2 | 23 |  | 
Cc1cc(F)c(O)c(C)c1-n1c(N)c(C(N)=O)c2cc(C3CC3)c(C)nc21 (atropisomer, axis not shown) [Example 141] | 5.8 | 76 |  | 
Cc1cc2c(C(N)=O)c(N)n(-c3c(C)c(O)cc(F)c3C)c2nc1C (atropisomer, axis not shown) [Example 21] | 4.13 |  | 20 | 
Cc1cc(F)c(O)c(C)c1-n1c(N)c(C(N)=O)c2cc(N3CCC3)c(C)nc21 (atropisomer, axis not shown) [Example 173.2] | 4.5 | 65 |  | 
Cc1c(O)cc(F)c(C)c1-n1c(N)c(C(N)=O)c2cc(C3CCCCC3)cnc21 [Example 102] | 27.3 | 82 |  | 
Cc1c(O)cc(F)c(C)c1-n1c(N)c(C(N)=O)c2cc(Cl)cnc21 [Example 81] | 9.19 | 66 |  | 
Cc1nc2c(cc1-c1cnn(C)c1)c(C(N)=O)c(N)n2-c1c(C)c(O)cc(F)c1C [Example 128] | 16.9 | 69 |  | 
Cc1nc2c(cc1C1CC1)c(C(N)=O)c(N)n2-c1c(C)c(O)cc(F)c1C [Example 110] | 5.77 | 15 |  | 
Cc1c(O)cc(F)c(C)c1-n1c(N)c(C(N)=O)c2cc3c(nc21)CCO3 [Example 181] | 34.8 | 63 |  | 

Compound | IC50 [1] [nM] | IC50 ([2]; Homo sapiens, HCC1569, 120 h) [nM] | IC50 [2] [nM] | IC50 ([2]; Homo sapiens, 120 h) [nM]
Cc1c(O)cc(F)c(C)c1-n1c(N)c(C(N)=O)c2cc(C3CC3)cnc21 [Example 80] | 3.51 | 16 |  | 
Cc1c(O)cc(F)c(C)c1-n1c(N)c(C(N)=O)c2cc(C(C)C)cnc21 (atropisomer, axis not shown) [Example 113.2] | 4.1 | 3 |  | 
Cc1nc2c(cc1C1=CCCC1)c(C(N)=O)c(N)n2-c1c(C)c(O)cc(F)c1C [Example 116] | 25.9 | 28 |  | 
Cc1nc2c(cc1C1CCCC1)c(C(N)=O)c(N)n2-c1c(C)c(O)cc(F)c1C [Example 112] | 33.8 | 18 |  | 
Cc1nc2c(cc1-c1ccncc1)c(C(N)=O)c(N)n2-c1c(C)c(O)cc(F)c1C [Example 129] | 10.5 | 38 |  | 
Cc1cc(F)c(O)c(C)c1-n1c(N)c(C(N)=O)c2cc(C(C)C)c(C)nc21 (racemic) [Example 159] | 15.1 | 56.2 |  | 
C=Cc1cc2c(C(N)=O)c(N)n(-c3c(C)c(O)cc(F)c3C)c2nc1C (racemic) [Example 111] | 3.57 | 13 |  | 
CCc1nc2c(cc1C)c(C(N)=O)c(N)n2-c1c(C)c(O)cc(F)c1C [Example 136] | 9.9 | 21 |  | 
C#Cc1cnc2c(c1)c(C(N)=O)c(N)n2-c1c(C)c(O)cc(F)c1C [Example 101] | 6.8 | 94 |  | 
Cc1nc2c(cc1N1CCOCC1)c(C(N)=O)c(N)n2-c1c(C)c(O)cc(F)c1C [Example 134] | 33.6 | 56 |  | 
Cc1c(O)cc(F)c(C)c1-n1c(N)c(C(N)=O)c2cc3c(nc21)CCC3 [Example 179] | 3.13 | 22 |  | 
CCc1cc2c(C(N)=O)c(N)n(-c3c(C)c(O)cc(F)c3C)c2nc1C (atropisomer, axis not shown) [Example 132] | 8.92 |  | 30 | 
Cc1cc(F)c(O)c(C)c1-n1c(N)c(C(N)=O)c2cc(Br)c(C)nc21 [Example 58, 2-Amino-5-bromo-1-(4-fluoro-3-hydroxy-2,6-dimethylphenyl)-6-methyl-1H-pyrrolo[2,3-b]pyridine-3-carboxamide] | 3.57 |  |  | 70
Cc1nc2c(cc1C(F)(F)F)c(C(N)=O)c(N)n2-c1c(C)c(O)cc(F)c1C [Example 120, 2-amino-1-(3-fluoro-5-hydroxy-2,6-dimethylphenyl)-6-methyl-5-(trifluoromethyl)-1H-pyrrolo[2,3-b]pyridine-3-carboxamide] | 9.09 |  |  | 14
C=Cc1nc2c(cc1C)c(C(N)=O)c(N)n2-c1c(C)c(O)cc(F)c1C [Example 122] | 8.71 | 28 |  | 
Cc1c(O)cc(F)c(C)c1-n1c(N)c(C(N)=O)c2cc(-c3ccccc3)cnc21 (racemic) [Example 119] | 15.2 | 44 |  | 
Cc1c(O)cc(F)c(C)c1-n1c(N)c(C(N)=O)c2cc3ccccc3nc21 [Example 191] | 2.85 | 16 |  | 
Cc1cc(F)c(O)c(C)c1-n1c(N)c(C(N)=O)c2cc(C(C)C)cnc21 (atropisomer, axis not shown) [Example 170.2] | 10 | 80 |  | 
Cc1cc(F)c(O)c(C)c1-n1c(N)c(C(N)=O)c2cc(C(C)C)c(C)nc21 (atropisomer, axis not shown) [Example 159.1] | 4.42 | 31 |  | 
Cc1cc2c(C(N)=O)c(N)n(-c3c(C)c(O)cc(F)c3C)c2nc1-c1cccnc1 [Example 123] | 6.48 | 58 |  | 
